Source: ChEMBL document CHEMBL1151997, “Structural analogues of the michellamine anti-HIV agents. Importance of the tetrahydroisoquinoline rings for biological activity” (Bioorg Med Chem Lett, 1997)

How the values were obtained:
[1] = test system: Human immunodeficiency virus 1; assay: In vitro anti-HIV-1 activity in CEM-SS cytoprotection assay; No activity.; format: functional, organism-based
CEM-SS = assay: In vitro cytotoxicity in CEM-SS cell line up to a concentration of 100 uM.; format: functional, cell-based; settings: Homo sapiens

## COc1cc(OC)c2c(O)c(-c3cc(-c4ccccc4)c4cc(OC)cc(OC)c4c3O)cc(-c3ccccc3)c2c1
[1]
  EC50: Not Active
CEM-SS
  IC50: > 100 µM

## COc1cccc2c(-c3ccc4c(c3)OCO4)cc(-c3cc(-c4ccc5c(c4)OCO5)c4cccc(OC)c4c3O)c(O)c12
[1]
  EC50: Not Active
CEM-SS
  IC50: > 100 µM

## COc1cccc2c(-c3cccc(N)c3)cc(-c3cc(-c4cccc(N)c4)c4cccc(OC)c4c3O)c(O)c12
[1]
  EC50: Not Active
CEM-SS
  IC50: > 100 µM

## COc1cc(OC)c2c(O)c(-c3cc(-c4cccc(N)c4)c4cc(OC)cc(OC)c4c3O)cc(-c3cccc(N)c3)c2c1
[1]
  EC50: Not Active
CEM-SS
  IC50: > 100 µM

## COc1cccc2c(-c3cccc([N+](=O)[O-])c3)cc(-c3cc(-c4cccc([N+](=O)[O-])c4)c4cccc(OC)c4c3O)c(O)c12
[1]
  EC50: Not Active
CEM-SS
  IC50: > 100 µM

## COc1cc(C)cc2c(-c3ccc(O)cc3O)cc(-c3cc(-c4ccc(O)cc4O)c4cc(C)cc(OC)c4c3O)c(O)c12
[1]
  EC50: Not Active
CEM-SS
  IC50: 2.6 µM

## COc1cc(OC)c2c(O)c(-c3cc(-c4cccc([N+](=O)[O-])c4)c4cc(OC)cc(OC)c4c3O)cc(-c3cccc([N+](=O)[O-])c3)c2c1
[1]
  EC50: Not Active
CEM-SS
  IC50: > 100 µM

## COc1cc(C)cc2c(-c3cccc([N+](=O)[O-])c3)cc(-c3cc(-c4cccc([N+](=O)[O-])c4)c4cc(C)cc(OC)c4c3O)c(O)c12
[1]
  EC50: Not Active
CEM-SS
  IC50: > 100 µM

## COc1cc(C)cc2c(-c3cccs3)cc(-c3cc(-c4cccs4)c4cc(C)cc(OC)c4c3O)c(O)c12
[1]
  EC50: Not Active
CEM-SS
  IC50: > 100 µM

## COc1cccc2c(-c3cccs3)cc(-c3cc(-c4cccs4)c4cccc(OC)c4c3O)c(O)c12
[1]
  EC50: Not Active
CEM-SS
  IC50: > 100 µM

## COc1cc(C)cc2c(-c3ccc4c(c3)OCO4)cc(-c3cc(-c4ccc5c(c4)OCO5)c4cc(C)cc(OC)c4c3O)c(O)c12
[1]
  EC50: Not Active
CEM-SS
  IC50: > 100 µM

## COc1cc(C)cc2c(-c3ccccc3)cc(-c3cc(-c4ccccc4)c4cc(C)cc(OC)c4c3O)c(O)c12
[1]
  EC50: Not Active
CEM-SS
  IC50: > 100 µM

## COc1cc(OC)c2c(O)c(-c3cc(-c4ccc(O)cc4O)c4cc(OC)cc(OC)c4c3O)cc(-c3ccc(O)cc3O)c2c1
[1]
  EC50: Not Active
CEM-SS
  IC50: 3.9 µM

## COc1cc(OC)c2c(O)c(-c3cc(-c4ccc5c(c4)OCO5)c4cc(OC)cc(OC)c4c3O)cc(-c3ccc4c(c3)OCO4)c2c1
[1]
  EC50: Not Active
CEM-SS
  IC50: > 100 µM

## COc1cc(OC)c2c(O)c(-c3cc(-c4cccs4)c4cc(OC)cc(OC)c4c3O)cc(-c3cccs3)c2c1
[1]
  EC50: Not Active
CEM-SS
  IC50: > 100 µM

## COc1cc(C)cc2c(-c3cccc(N)c3)cc(-c3cc(-c4cccc(N)c4)c4cc(C)cc(OC)c4c3O)c(O)c12
[1]
  EC50: Not Active
CEM-SS
  IC50: > 100 µM

## COc1cccc2c(-c3ccc(O)cc3O)cc(-c3cc(-c4ccc(O)cc4O)c4cccc(OC)c4c3O)c(O)c12
[1]
  EC50: Not Active
CEM-SS
  IC50: 2.2 µM

## COc1cccc2c(-c3ccccc3)cc(-c3cc(-c4ccccc4)c4cccc(OC)c4c3O)c(O)c12
[1]
  EC50: Not Active
CEM-SS
  IC50: > 100 µM
